In patent US20170246236A1, “METHODS AND COMPOSITIONS FOR ENHANCED DELIVERY OF COMPOUNDS” (Sanford Burnham Prebys Medical Discovery Institute, priority 2010, published 2017):
Residues, ends and D or L forms follow the SMILES beside them.

What was measured:
[1] = test system: mitochondria in HUVEC; assay: Live cell imaging, co-localization with mitochondrial marker; format: cell-based, human
Procedure: (§1) Cell proliferation assay and imaging. The MTT [3-[4,5-dimethylthazol-2-yl]-2,5-diphenyl tetrazolium-bromide] assay (Molecular Probes, Eugene, Oreg.) was used to quantify cell proliferation. Cells were seeded in complete medium into 96-well plates (5×10^3 cells/well), and allowed to attach overnight at 37° C. in a humidified 5% CO2 atmosphere. The culture media was then removed and various concentrations of peptides or NWs were added. After 48, and 72 hours, 10 μL of the MTT reagent (5 mg/mL in PBS) was added to each well. The medium was removed from cells after 3 hours, and […] of DMSO:MEOH (1:1 v/v) were added to each well. The plates were read at a wavelength of 595 nm. For live cell imaging, cells seeded on glass-bottom plates (Willco, Amsterdam, Netherlands), and 24 hours later, the cells were washed and incubated with FAM-labeled peptides or NWs for 45 min at 37° C. The cells were then rinsed three times with PBS and incubated for an additional 15 min at 37° C. with […] MitoTracker Red (Molecular Probes, Eugene, Oreg.) followed by nuclear staining with Hoechst 33342 DNA dyes (Molecular Probe, Eugene, Oreg.) for 12 min. The cells were analyzed with Fluoview FV 500 confocal microscopy (Olympus America, Center Valley, Pa.).

[2] = test system: mitochondria in U87 cells; assay: as above; format: cell-based, human
Procedure: as §1

[3] = test system: purified mitochondria; assay: Peptide/phage binding to purified mitochondria; set-up: species or system mouse; conditions: increasing concentrations of unlabeled peptide
Procedure: Isolation of mitochondria and peptide/phage binding. Mitochondria were isolated from livers of Balb/c mice using differential centrifugation with buffers from a Pierce mitochondrial isolation kit for tissue according to the manufacture's instruction (Pierce Biotechnology, Rockford, Ill.). To test the binding of the CGKRK peptide to mitochondria, purified mitochondria were pre-incubated with various concentrations of non-labeled CGKRK or control peptide (CREKA; SEQ ID NO:92) for 30 min 4° C. FAM-CGKRK was then added and incubated for an additional 1 hour. The binding of the FAM peptide was quantified by fluorescence. In phage binding assays, purified mitochondria were suspended in 10 ml DMEM supplemented with 1% BSA, and incubated with 5×10^8 plaque-forming units (pfu) of peptide-displaying phage, overnight at 4° C. The mitochondria were washed 3 times with DMEM/BSA, the phage were collected with lysogeny broth containing 1% NP-40, and quantified by plaque assay.

[4] = test system: proteins from brain tumor extracts; assay: CGKRK-binding proteins in glioblastoma tumor extracts (affinity matrix); conditions: mass spectrometry
Excerpt: Proteins from brain tumor extracts were bound to insolubilized (SulfoLink Resin; Pierce Biotechnology) CGKRK peptide. Proteins were eluted from the affinity matrix with either CGKRK peptide or with CREKA (SEQ ID NO:92) peptide (negative control). Silver-stained gels were used to show the proteins eluted with CGKRK and CREKA (SEQ ID NO:92). […] The bands in the CGKRK eluate were identified by mass spectrometry as the proteins listed.

[5] = test system: GBM tumors; assay: In vivo peptide homing; set-up: species or system mouse; conditions: 200 μg Rd-labeled peptide i.v., 3 hours, 005 tumor mice
Procedure: In vivo peptide homing. […] Rhodamine-labeled CGKRK (200 μg) was intravenously injected into the mice and allowed to circulate for 3 hours. The mice were perfused with PBS through the heart under anesthesia, and tissues were collected and processed for fluorescence analysis.

**Q.** Which results are given for “D[KLAKLAK]2: α-helical amphipathic pro-apoptotic peptide, SEQ ID NO:3 (KLAKLAKKLAKLAK; D-amino acids; membrane perturbing molecule) [reference compound]”?
**A.** co-localization with mitochondria [1]: did not; co-localization with mitochondria [2]: did not

**Q.** Which results are given for “CREKA: Unrelated control peptide, SEQ ID NO:92 (clot binding/homing peptide)”?
**A.** inhibition of FAM-CGKRK binding to mitochondria by unlabeled peptide [3]: not; proteins eluted from CGKRK affinity matrix [4]: failed to elute any visible protein bands

**Q.** How did the co-localization with mitochondria [1] turn out when `CC(C)C[C@@H](NC(=O)[C@H](N)CCCCN)C(=O)N[C@H](C)C(=O)N[C@H](CCCCN)C(=O)N[C@H](CC(C)C)C(=O)N[C@H](C)C(=O)N[C@H](CCCCN)C(=O)N[C@H](CCCCN)C(=O)N[C@H](CC(C)C)C(=O)N[C@H](C)C(=O)N[C@H](CCCCN)C(=O)N[C@H](CC(C)C)C(=O)N[C@H](C)C(=O)N[C@H](CCCCN)C(=O)N[C@@H](CS)C(=O)NCC(=O)N[C@@H](CCCCN)C(=O)N[C@@H](CCCNC(=N)N)C(=O)N[C@@H](CCCCN)C(=O)O` [CGKRK-D[KLAKLAK]2 peptide] was run?
**A.** colocalized with mitochondria

**Q.** What about the co-localization with mitochondria [2] of the same compound?
**A.** colocalized with mitochondria

**Q.** Which “peptide in normal tissues” value [5] does the source give for `N=C(N)NCCC[C@H](NC(=O)[C@H](CCCCN)NC(=O)CNC(=O)[C@@H](N)CS)C(=O)N[C@@H](CCCCN)C(=O)O` [CGKRK, Cys-Gly-Lys-Arg-Lys] (H-CGKRK-OH) here?
**A.** not in normal tissues

**Q.** What about the “peptide in normal tissues” value ([5]; listed as CGKRK peptide) of the same compound?
**A.** appeared in kidney but not in heart, pancreas, liver, lung, or spleen
